Results as given in US20160220677A1, “STABLE AQUEOUS COMPOSITIONS OF PROSTGLANDIN AGONIST PRODRUGS AND METHODS FOR USE THEREOF” (Allergan, Inc., priority 2009, published 2016).

Assay: Aqueous stability of formulations, % recovery by HPLC
Type: physicochemical
Settings: 30° C.; 45 days; each formulation (Formulations 1-4)
Protocol: The aqueous stability of invention compositions was evaluated using Compounds 2 and 3.
The formulations were analyzed by HPLC with the following measurement parameters:
Column: BioWidePore C18 (SUPELCO), 4.6 mm×25 cm, 5 μm Mobile Phase A: 0.1% (V/V) trifluoroacetic acid (TFA) in di-water, 0.8 micron filtered Mobile Phase B: 100% acetonitrile, 0.8 micron filtered Column temp: Ambient Injection volume: 30 μL
Flow: 1.0 mL/min Run time: 25 minutes Sample diluent: 50% acetonitrile in di-water
Using the above HPLC parameters, the following stability data was generated: […]

stability in each formulation: stable
Structure (SMILES): CCCCCC(O)c1ccc(N2C(=O)CC[C@@H]2CCCc2ccc(C(=O)OCCO)s2)cc1 (stereo partly shown) [Compound 2]
